Experimental findings from patent US8158672B2, “Fluoroalkoxy-substituted 1,3-dihydro-isoindolyl compounds and their pharmaceutical uses” (Celgene Corporation, priority 2002, dated 2012) are described below.

As usually defined, the melting point is the temperature of the solid-liquid transition. Compound `CC(=O)Nc1cccc2c1C(=O)N(C(CC(=O)N(C)C)c1ccc(OC(F)F)c(OCC3CC3)c1)C2=O` (centres unmarked) [Example 5, 3-(4-Acetylamino-1,3-dioxo-1,3-dihydro-isoindol-2-yl)-3-(3-cyclopropylmethoxy-4-difluoromethoxy-phenyl)-N,N -dimethyl-propionamide] registered a melting point of 80 to 82 °C.

`CC(=O)Nc1cccc2c1C(=O)N(C(CC(N)=O)c1ccc(OC(F)F)c(OCC3CC3)c1)C2=O` (centres unmarked) [Example 6, 3-(4-Acetylamino-1,3-dioxo-1,3-dihydro-isoindol-2-yl) -3-(3 cyclopropylmethoxy-4-difluoromethoxy-phenyl) -propionamide] displayed a melting point of 77 to 79 °C.

`O=C(CC(c1ccc(OC(F)F)c(OCC2CC2)c1)N1C(=O)c2ccccc2C1=O)NO` (centres unmarked) [Example 8, 3-(3-Cyclopropylmethoxy-4-difluoromethoxy-phenyl) -3-(1,3-dioxo-1,3-dihydro-isoindol-2-yl)-N-hydroxy-propionamide] returned a melting point of 129 to 131 °C.

Compound `CN(C)C(=O)CC(c1ccc(OC(F)F)c(OCC2CC2)c1)N1Cc2cccc(N)c2C1=O` (centres unmarked) [Example 14, 3-(7-Amino-1-oxo-1,3-dihydro-isoindol-2-yl)-3-(3-cyclopropylmethoxy-4-difluoromethoxy-phenyl)-N,N-dimethyl-propionamide] showed a melting point of 70 to 72 °C.

In turn, `CCOc1cc(C(CC(=O)O)N2Cc3cccc(NC(C)=O)c3C2=O)ccc1OC(F)F` (centres unmarked) [Example 22, 3-(7-Acetylamino-1-oxo-1,3-dihydro-isoindol-2-yl)-3-(4-difluoromethoxy-3-ethoxy-phenyl)-propionic acid] registered a melting point of 105 to 107 °C.

Take `CCOc1cc(C(CC(N)=O)N2Cc3cccc(NC(=O)C4CC4)c3C2=O)ccc1OC(F)F` (centres unmarked) [Example 24, Cyclopropanecarboxylic acid {2-[2-carbamoyl-1-(4-difluoromethoxy-3-ethoxy-phenyl)-ethyl]-3-oxo-2,3-dihydro-1H -isoindol-4-yl}-amide]: the melting point lay within 179 to 181 °C.

Turning to `CCOc1cc(C(CC(=O)N(C)C)N2Cc3cccc(NC(=O)C4CC4)c3C2=O)ccc1OC(F)F` (centres unmarked) [Example 25, Cyclopropanecarboxylic acid {2-[1-(4-difluoromethoxy-3-ethoxy-phenyl)-2-dimethylcarbamoyl-ethyl]-3-oxo-2,3-dihydro-1H-isoindol-4-yl}-amide], the melting point is 135 to 137 °C.

For the compound `CCOc1cc(C(CC(=O)NO)N2Cc3cccc(NC(=O)C4CC4)c3C2=O)ccc1OC(F)F` (centres unmarked) [Example 26, Cyclopropanecarboxylic acid {2-[1-(4-difluoromethoxy-3-ethoxy-phenyl)-2-hydroxycarbamoyl-ethyl]-3-oxo-2,3-dihydro-1H-isoindol-4-yl}-amide], the melting point was 116 to 118 °C.

For `CCOc1cc(C(CC(N)=O)N2Cc3cccc(NC(C)=O)c3C2=O)ccc1OC(F)F` (centres unmarked) [Example 27, 3-(7-Acetylamino-1-oxo-1,3-dihydro-isoindol-2-yl)-3-(4-difluoromethoxy-3-ethoxy-phenyl)-propionamide], the melting point fell in the range of 129 to 131 °C.

For the compound `CCOc1cc(C(CC(=O)N(C)C)N2Cc3cccc(NC(C)=O)c3C2=O)ccc1OC(F)F` (centres unmarked) [Example 28, 3-(7-Acetylamino-1-oxo-1,3-dihydro-isoindol-2-yl)-3-(4-difluoromethoxy-3-ethoxy-phenyl)-N,N-dimethyl-propionamide], the melting point is 141 to 143 °C.

On to `CCOc1cc(C(CC(=O)NO)N2Cc3cccc(NC(C)=O)c3C2=O)ccc1OC(F)F` (centres unmarked) [Example 29, 3-(7-Acetylamino-1-oxo-1,3-dihydro-isoindol-2-yl)-3-(4-difluoromethoxy-3-ethoxy-phenyl)-N-hydroxy-propionamide], for which the melting point lay in the range of 121 to 123 °C.

`CCOc1cc(C(CC(=O)O)N2C(=O)c3cccc(NC(C)=O)c3C2=O)ccc1OC(F)F` (centres unmarked) [Example 30, 3-(4-Acetylamino-1,3-dioxo-1,3-dihydro-isoindol-2-yl)-3-(4-difluoromethoxy-3-ethoxy-phenyl)-propionic acid] yielded a melting point of 89 to 91 °C.

For the compound `CCOc1cc(C(CC(N)=O)N2C(=O)c3cccc(NC(C)=O)c3C2=O)ccc1OC(F)F` (centres unmarked) [Example 31, 3-(4-Acetylamino-1,3-dioxo-1,3-dihydro-isoindol-2-yl)-3-(4-difluoromethoxy-3-ethoxy-phenyl)-propionamide], the melting point lay in the range of 178 to 180 °C.

The compound `CCOc1cc(C(CC(=O)N(C)C)N2C(=O)c3cccc(NC(C)=O)c3C2=O)ccc1OC(F)F` (centres unmarked) [Example 32, 3-(4-Acetylamino-1,3-dioxo-1,3-dihydro-isoindol-2-yl)-3-(4-difluoromethoxy-3-ethoxy-phenyl)-N,N-dimethyl-propionamide] displayed a melting point of 163 to 165 °C.

Take `CCOc1cc(C(CC(=O)NO)N2C(=O)c3cccc(NC(C)=O)c3C2=O)ccc1OC(F)F` (centres unmarked) [Example 33, 3-(4-Acetylamino-1,3-dioxo-1,3-dihydro-isoindol-2-yl)-3-(4-difluoromethoxy-3-ethoxy-phenyl)-N-hydroxy-propionamide]: the melting point was 148 to 150 °C.

Turning to `CCOc1cc(C(CS(C)(=O)=O)N2Cc3cccc(NC(=O)C4CC4)c3C2=O)ccc1OC(F)F` (centres unmarked) [Example 35, Cyclopropanecarboxylic acid {2-[1-(4-difluoromethoxy-3-ethoxy-phenyl)-2-methanesulfonyl-ethyl]-3-oxo-2,3-dihydro-1H-isoindol-4-yl}-amide], the melting point fell in the range of 115 to 117 °C.

With `CCOc1cc(C(CS(C)(=O)=O)N2C(=O)c3cccc(NC(C)=O)c3C2=O)ccc1OC(F)F` (centres unmarked) [Example 36], the melting point was 118 to 120 °C.

On to `CCOc1cc(C(CC(N)=O)N2Cc3c(Cl)ccc(NC(=O)C4CC4)c3C2=O)ccc1OC(F)F` (centres unmarked) [Example 37, Cyclopropanecarboxylic acid {2-[2-carbamoyl-1-(4-difluoromethoxy-3-ethoxy-phenyl)-ethyl]-7-chloro-3-oxo-2,3-dihydro-1H-isoindol-4-yl}-amide], for which the melting point was in the range of 198 to 200 °C.

In turn, `CCOc1cc(C(CC(=O)N2CCOCC2)N2C(=O)c3cccc(NC(C)=O)c3C2=O)ccc1OC(F)F` (centres unmarked) [Example 38, N-{2-[1-(4-Difluoromethoxy-3-ethoxy-phenyl)-3-morpholin-4-yl-3-oxo-propyl]-1,3-dioxo-2,3-dihydro-1H-isoindol-4-yl}-acetamide] gave a melting point of 109 to 111 °C.

`CCOc1cc(C(CC(=O)N2CCOCC2)N2Cc3cccc(NC(C)=O)c3C2=O)ccc1OC(F)F` (centres unmarked) [Example 39, N-{2-[1-(4-Difluoromethoxy-3-ethoxy-phenyl)-3-morpholin-4-yl-3-oxo-propyl]-3-oxo-2,3-dihydro-1H-isoindol-4-yl}-acetamide]: the melting point was in the range of 164 to 166 °C.

Compound `CC(=O)Nc1cccc2c1C(=O)N(C(CC(=O)N(C)C)c1ccc(OC(F)F)c(OC(F)F)c1)C2=O` (centres unmarked) [Example 40, 3-(4-Acetylamino-1,3-dioxo-1,3-dihydro-isoindol-2-yl)-3-(3,4-bis-difluoromethoxy-phenyl)-N,N-dimethyl-propionamide] came in with a melting point of 83 to 85 °C.

For the compound `COC(=O)CC(c1ccc(OC(F)F)c(OC(F)F)c1)N1Cc2c(Cl)ccc(NC(=O)C3CC3)c2C1=O` (centres unmarked) [Example 41, 3-(3,4-Bis-difluoromethoxy-phenyl)-3-[4-chloro-7-(cyclopropanecarbonyl-amino)-1-oxo-1,3-dihydro-isoindol-2-yl]-propionic acid methyl ester], the melting point lay in the range of 175 to 177 °C.

The compound `CN(C)C(=O)CC(c1ccc(OC(F)F)c(OC(F)F)c1)N1Cc2cccc(NC(=O)C3CC3)c2C1=O` (centres unmarked) [Example 42, Cyclopropanecarboxylic acid {2-[1-(3,4-bis-difluoromethoxy-phenyl)-2-dimethylcarbamoyl-ethyl]-3-oxo-2,3-dihydro-1H-isoindol-4-yl}-amide] registered a melting point of 158 to 160 °C.

As for `NC(=O)CC(c1ccc(OC(F)F)c(OC(F)F)c1)N1Cc2cccc(NC(=O)C3CC3)c2C1=O` (centres unmarked) [Example 43, Cyclopropanecarboxylic acid {2-[1-(3,4-bis-difluoromethoxy-phenyl)-2-carbamoyl-ethyl]-3-oxo-2,3-dihydro-1H-isoindol-4-yl}-amide], the melting point lay within 198 to 200 °C.

Turning to `O=C(CC(c1ccc(OC(F)F)c(OC(F)F)c1)N1Cc2cccc(NC(=O)C3CC3)c2C1=O)NO` (centres unmarked) [Example 44, Cyclopropanecarboxylic acid {2-[1-(3,4-bis-difluoromethoxy-phenyl)-2-hydroxycarbamoyl-ethyl]-3-oxo-2,3-dihydro-1H-isoindol-4-yl}-amide], the melting point is 191 to 193 °C.

The compound `O=C(O)CC(c1ccc(OC(F)F)c(OC(F)F)c1)N1Cc2cccc(NC(=O)C3CC3)c2C1=O` (centres unmarked) [Example 45, 3-(3,4-Bis-difluoromethoxy-phenyl)-3-[7-(cyclopropanecarbonyl-amino)-1-oxo-1,3-dihydro-isoindol-2-yl]-propionic acid] returned a melting point of 94 to 96 °C.
